US9528993B2, “Agents and methods related to screening for resistance to DR5 and reducing resistance to DR5 agonists” (The UAB Research Foundation, priority 2005, dated 2016)
{Fl} = fluorescein label

Legend:
[1] = tested on: human breast cancer cell line, MDA-231; assay: Cytotoxicity analysis (ATPLITE cell viability), MDA-231; assay type: cell-based; conditions: for TRA-8-mediated apoptosis of induced resistant cells in presence of chemotherapeutic agent: MDA-231 resistant cells, 0.1 μM taxol, 1 μM Adriamycin, 100 μM cisplatin or 5 μM BisVIII
Experimental: (§1) Cells (1,000 cells per well) were seeded into 96-well plate in triplicate with eight concentrations (double serial dilutions from 1000 ng/ml) of TRA-8, 2E12, or TRAIL. Cell viability was determined after overnight culture using ATPLITE assay according to the manufacture's instructions (Packard Instruments, Meriden, Conn.). The results are presented as the precentage of viable cells in treated wells compared to medium control wells.
(§2) Cells (5×10^5/ml) were incubated with a starting dose of 1 ng/ml TRA-8 for two days. Cells were split with fresh medium and incubated with a double dose of TRA-8 every two days until TRA-8 dose reached 2,000 ng/ml. At each treatment cycle, the cell viability of non-induced (parental) and induced cells treated with an inducing dose of TRA-8 was determined by ATPLITE assay.

[2] = tested on: human ovarian cancer cell line, UL-3C; assay: Cytotoxicity analysis (ATPLITE cell viability), UL-3C; assay type: cell-based; conditions: for TRA-8-mediated apoptosis of induced resistant cells in presence of chemotherapeutic agent: UL-3C resistant cells, 0.1 μM taxol, 1 μM Adriamycin, 100 μM cisplatin or 5 μM BisVIII
Experimental: as §1, §2

[3] = tested on: caspase activation and PARP cleavage in MDA231 cells; assay: Western blot of caspase cascade activation in MDA231 cells; assay type: cell-based, human; conditions: MDA-231 resistant cells, single agent alone at 4 hours (1,000 ng/ml TRA-8 or 1 μM Adriamycin)
Experimental: Tumor cells (3×10^6) were washed twice with cold PBS and lysed with 300 μl lysis buffer containing 10 mM Tris-HCl (pH 7.6), 150 mM NaCl, 0.5 mM EDTA, 1 mM EGTA, 0.1% SDS, 1 mM sodium orthovanadate, and a mixture of protease inhibitors (1 mM phenylmethylsulfonyl fluoride, 1 μg/ml pepstatin A, 2 μg/ml aprotinin). Lysates were sonicated for 10 seconds, and centrifuged for 20 minutes at 12,000 g. The cell lysates with equal amount of total proteins were boiled for 5 minutes with SDS-PAGE sample buffer. Total cell lysates were separated in 8%, 10%, or 12% SDS-PAGE, and electrophoretically transferred to nitrocellulose membrane. The blots were blocked with 5% nonfat dry milk in TBST buffer (20 mM Tris-HCl (pH 7.4), 500 mM NaCl, and 0.1% Tween 20) and incubated with primary antibody in blocking buffer at 4° C. overnight. The blots were washed three times with TBST and probed with HRP-conjugated secondary antibodies for one hour at room temperature. After washing four times with TBST, the probed proteins were visualized using the ECL Western blotting detection system (Amersham Biosciences, Piscataway, N.J.) according to the manufacturer's instructions.

GSK-3 [4] = conditions: cited from earlier work
Cdk1/B = conditions: cited from earlier work
Cdk5/p35 = Cdk5/p35 (Homo sapiens, UniProt Q00535); conditions: cited from earlier work
GSK-3 [5] = conditions: cited from earlier work; remark: listed apart in the source
[6] = tested on: DDX3 in panel of tumor cells; assay: DDX3 expression in panel of tumor cells after DDX3 sRNAi oligo (Western blot); assay type: cell-based; conditions: 48 hours after transfection
Excerpt: They were then cloned into the BLOCK-iT U6 entry vector. The shRNA is driven by the U6 promoter and can be transiently expressed in most dividing or nondividing mammalian cell types. Resistant cells were transfected with RNAi used LIPOFECTAMINE 2000 (Invitrogen) for the RNAi response. […] Once decreased DDX3 expression was achieved, the siRNA oligo was synthesized (Target sequence: […] (SEQ ID NO:27): Sense RNA 5′-Fl-[…] (Fl-SEQ ID NO:27) (Fl=fluorescein); Anti-senseRNA 5′-[…]-3′ (SEQ ID NO:28), and RNAi control oligo (RI-010-DP) was purchased from Molecula (Columbia, Md.).

panel of tumor cells = assay: TRA-8-induced apoptosis in panel of tumor cells after DDX3 sRNAi oligo (ATPLite); assay type: cell-based; conditions: including some spontaneous resistant cells; various concentrations of TRA-8 overnight
Experimental: as §1, with “Cytotoxicity analysis of tumor cell susceptibility to TRA-8, 2E12, and TRAIL-mediated apoptosis. Cells” for “Cells”, “plates” for “plate”, “an ATPLITE™” for “ATPLITE”, “manufacturer's” for “manufacture's”
They were then cloned into the BLOCK-iT U6 entry vector. The shRNA is driven by the U6 promoter and can be transiently expressed in most dividing or nondividing mammalian cell types. Resistant cells were transfected with RNAi used LIPOFECTAMINE 2000 (Invitrogen) for the RNAi response. The decreased DDX3 expression was determined by Western blot analysis using anti-DDX3 antibody 36 hours after transfection. Once decreased DDX3 expression was achieved, the siRNA oligo was synthesized (Target sequence: […] (SEQ ID NO:27): Sense RNA 5′-Fl-[…] (Fl-SEQ ID NO:27) (Fl=fluorescein); Anti-senseRNA 5′-[…]-3′ (SEQ ID NO:28), and RNAi control oligo (RI-010-DP) was purchased from Molecula (Columbia, Md.).

Chain of Cdk5/p35 (Q00535 whole entry, species assumed): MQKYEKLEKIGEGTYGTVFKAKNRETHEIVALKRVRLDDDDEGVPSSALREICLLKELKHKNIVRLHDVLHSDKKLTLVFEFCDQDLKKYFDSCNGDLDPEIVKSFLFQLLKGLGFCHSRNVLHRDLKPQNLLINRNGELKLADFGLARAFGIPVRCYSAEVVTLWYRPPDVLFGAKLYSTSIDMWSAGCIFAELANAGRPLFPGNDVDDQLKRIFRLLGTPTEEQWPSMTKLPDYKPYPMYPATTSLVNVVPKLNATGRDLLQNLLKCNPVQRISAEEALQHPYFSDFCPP
Chain of Cdk5/p35 (Q15078 whole entry partner, species assumed): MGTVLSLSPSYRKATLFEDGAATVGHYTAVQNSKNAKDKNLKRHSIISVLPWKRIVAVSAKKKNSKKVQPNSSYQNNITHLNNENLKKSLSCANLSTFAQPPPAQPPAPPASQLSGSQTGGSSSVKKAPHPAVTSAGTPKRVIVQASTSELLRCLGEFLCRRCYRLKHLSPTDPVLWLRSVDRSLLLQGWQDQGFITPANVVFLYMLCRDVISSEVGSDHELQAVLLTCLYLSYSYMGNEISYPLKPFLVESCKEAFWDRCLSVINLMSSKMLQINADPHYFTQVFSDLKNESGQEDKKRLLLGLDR

With `COc1cccc2c1C(=O)c1c(O)c3c(c(O)c1C2=O)C[C@@](O)(C(=O)CO)C[C@@H]3O[C@H]1C[C@H](N)[C@H](O)[C@H](C)O1` [Adriamycin] the “TRA-8-mediated apoptosis of induced resistant cells in presence of chemotherapeutic agent” value (“TRA-8-mediated apoptosis” below) [1] was “TRA-8 dose-dependent response was restored”, the “TRA-8-mediated apoptosis” value [2] was “TRA-8 dose-dependent response was restored” and the “activation of caspases 2, 3, 8, 9” value [3] was “did not induce any significant activation”.

For `CCCCc1c(-c2ccc(OC)cc2)[nH]c2nccnc12` [Aloisine, 7-n-Butyl-6-(4-methoxyphenyl)[5H]pyrrolo[2,3-b]pyrazine], the IC50 (GSK-3 [4]) is given as 920 nM, the IC50 (Cdk1/B) is given as 700 nM and the IC50 (Cdk5/p35) is given as 1500 nM.

For `[Be+2]` [Beryllium ions], the “inhibition of GSK-3” value (GSK-3 [4]) is listed as “micromolar range”.

For `Cn1cc(C2=C(c3cn(CCCN)c4ccccc34)C(=O)NC2=O)c2ccccc21` [Bisindolymaleimide VIII], the “TRA-8-mediated apoptosis” value [1] was “TRA-8 dose-dependent response was restored” and the “TRA-8-mediated apoptosis” value [2] was “TRA-8 dose-dependent response was restored”.

In the case of `N.N.[Cl][Pt][Cl]` [Cisplatin], the “TRA-8-mediated apoptosis” value [1] is reported as “TRA-8 dose-dependent response was restored” and the “TRA-8-mediated apoptosis” value [2] is reported as “TRA-8 dose-dependent response was restored”.

For `CC(C)NCC(O)c1ccc(O)c(O)c1` (stereo not shown) [Isoproterenol], the “decrease of GSK-3 activity” value (GSK-3 [5]) is listed as “approximately 50%”.

For `Cn1cc(C2=C(c3ccc(Cl)cc3Cl)C(=O)NC2=O)c2ccccc21` [SB216763], the “inhibition of GSK-3” value (GSK-3 [4]) is given as “potent”.

For `CC(=O)O[C@H]1C(=O)[C@@]2(C)[C@H]([C@H](OC(=O)c3ccccc3)[C@]3(O)C[C@H](OC(=O)[C@H](O)[C@@H](NC(=O)c4ccccc4)c4ccccc4)C(C)=C1C3(C)C)[C@]1(OC(C)=O)CO[C@@H]1C[C@@H]2O` [Taxol], the “TRA-8-mediated apoptosis” value [1] was “TRA-8 dose-dependent response was restored” and the “TRA-8-mediated apoptosis” value [2] was “TRA-8 dose-dependent response was restored”.

With “DDX3 RNAi: synthesized siRNA oligo, target sequence GGAGAAATTATCATGGGAAAC (SEQ ID NO:27), antisense SEQ ID NO:28 (sense GGAGAAAUUAUCAUGGGAAAC; antisense GUUUCCCAUGAUAAUUUCUCC; sense: RNA, 5' {Fl}, backbone not given here; antisense: RNA, backbone not given here)” the “amount of endogenous DDX3” value [6] was “reduced the amount of endogenous DDX3” and the TRA-8-induced apoptosis (panel of tumor cells) was “enhanced the TRA8-induced apoptosis”.

With “TRAIL: Recombinant soluble TRAIL purchased from Alexis Biochemicals” the “susceptibility of TRA-8 resistant cells to induced apoptosis” value ([1]; MDA-231R cells vs parental) was “still susceptible”, the “susceptibility to apoptosis, in vitro cytotoxicity assay” value ([1]; parental MDA-231 cells) was “susceptible to apoptosis” and the “susceptibility of TRA-8 resistant cells to induced apoptosis” value ([2]; UL-3CR cells vs parental) was “still susceptible”. For the same molecule, the “susceptibility to apoptosis, in vitro cytotoxicity assay” value ([2]; parental UL-3C cells) was “susceptible to apoptosis”.

For “insulin: comparator for decrease of GSK-3 activity”, the “decrease of GSK-3 activity” value (GSK-3 [5]) is given as “approximately 50%”.
